Source: PubChem BioAssay (NCI)
Several values for one entry are separate records, joined by “and”; a condition that tells them apart may be missing. Equal entries are not always repeated.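 Each compound was tested at five concentrations against cells in 96-well plates for 48 hours. Here, GI50 denotes the concentration required for 50% inhibition of growth. TGI marks complete inhibition of growth.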

Tests used:
Test in all cases: NCI tumour cell line growth inhibition, 48 h
RXF 393 renal = test system: RXF 393 renal
T-47D breast = test system: T-47D breast
CAKI-1 renal = test system: CAKI-1 renal
OVCAR-5 ovarian = test system: OVCAR-5 ovarian
SF-539 CNS = test system: SF-539 CNS
SF-295 CNS = test system: SF-295 CNS
HCT-116 colon = test system: HCT-116 colon
OVCAR-3 ovarian = test system: OVCAR-3 ovarian
KM12 colon = test system: KM12 colon
SK-OV-3 ovarian = test system: SK-OV-3 ovarian

SMILES | GI50 (RXF 393 renal) | TGI (RXF 393 renal) | GI50 (T-47D breast) | TGI (T-47D breast) | GI50 (CAKI-1 renal) | TGI (CAKI-1 renal) | GI50 (OVCAR-5 ovarian) | TGI (OVCAR-5 ovarian) | GI50 (SF-539 CNS) | TGI (SF-539 CNS) | GI50 (SF-295 CNS) | TGI (SF-295 CNS) | GI50 (HCT-116 colon) | TGI (HCT-116 colon) | GI50 (OVCAR-3 ovarian) | TGI (OVCAR-3 ovarian) | GI50 (KM12 colon) | TGI (KM12 colon) | GI50 (SK-OV-3 ovarian) | TGI (SK-OV-3 ovarian)
N#C/C(=C\c1ccc[nH]1)c1cc(-c2ccc(Cl)cc2)nn1-c1ccccc1 | 6.89 µM | 24.2 µM | 1.56 µM | 13.1 µM | 3.16 µM | > 100 µM | 15.7 µM | 50.3 µM | 6.05 µM | 18.9 µM | 2.8 µM | 13 µM | 3.28 µM | 12.8 µM | 2.37 µM | 8.69 µM | 2.68 µM | 11.6 µM | 7.88 µM | 40.2 µM
COC(=O)Nc1nc2ccc(C(=O)c3cccc(I)c3)cc2[nH]1 | 0.0494 µM | 1.05 µM | 16.5 µM | > 100 µM | 0.0538 µM | 11.2 µM | 0.173 µM | 17 µM | 0.0589 µM | 0.384 µM | 0.0647 µM | 5.94 µM | 0.0402 µM | 13.8 µM | 0.0332 µM | 0.207 µM | 0.0418 µM | 5.7 µM | 0.257 µM | 28.6 µM
COC(=O)CC[C@@H](C)[C@H]1CC[C@H]2[C@@H]3CC[C@@H]4C[C@H](O)CC[C@]4(C)[C@H]3CC[C@]12C | – | 33 µM | – | 36 µM | – | 34.1 µM | – | 35.6 µM | – | 36 µM | – | 33.9 µM | – | 31.8 µM | – | 35 µM | – | 34.5 µM | – | 49.9 µM
Nc1ccc(C#Cc2ccccc2C#CCCCCO)cc1 | 4.69 µM | 20.5 µM | 15.4 µM | 30.7 µM | 20.9 µM | 40.4 µM | 16.4 µM | 31.3 µM | 17.6 µM | 33.9 µM | 22.3 µM | 41.1 µM | 14.3 µM | 28.2 µM | 23 µM | 47.2 µM | 15.9 µM | 33.4 µM | 18.1 µM | 34.7 µM
Cc1ccsc1C(NC(=O)c1ccccc1)c1cc(Cl)c2cccnc2c1O (stereo not drawn) | 1.77 µM | 6.08 µM | 0.426 µM | 7.3 µM | 0.495 µM | 14.9 µM | 2.67 µM | 42 µM | 0.479 µM | 10.4 µM | 0.333 µM | 12.2 µM | 0.431 µM | 13.1 µM | 0.354 µM | 12.1 µM | 0.493 µM | 16 µM | 0.617 µM | 7.96 µM
Cc1ccc(NC(=O)COc2ccc(Cl)cc2)cc1Cl | – | > 100 µM | – | > 100 µM | – | 81.9 µM | – | > 100 µM | – | > 100 µM | – | > 100 µM | – | > 100 µM | – | > 100 µM | – | > 100 µM | – | > 100 µM
O=C1C2=C(C(=O)c3ccccc31)C(O)(S(=O)(=O)O)C(O)(S(=O)(=O)O)C1N=CC=CC21 (stereo not drawn) | 5.73 µM and 2.98 µM | 28.6 µM and 11.9 µM | 3.97 µM and 4.7 µM | 28.5 µM and 30.7 µM | 1.72 µM and 0.315 µM | 9.4 µM and 1.87 µM | 8.7 µM and 9.31 µM | > 100 µM and 45.7 µM | 4.01 µM and 3.89 µM | 19.9 µM and 18.1 µM | 2.57 µM and 1.13 µM | 6.68 µM and 8.19 µM | 3.34 µM and 2.81 µM | 20.1 µM and 12.7 µM | 2.33 µM and 2.86 µM | 6.78 µM and 11.7 µM | 4.33 µM and 4.8 µM | 67.4 µM and 20 µM | 4.61 µM and 8.35 µM | 38.3 µM and 32.4 µM
Cc1cc(I)cc(CN(C)CCCN2CCC(C)CC2)c1O | 10.5 µM | 23.5 µM | 15.8 µM | 40.7 µM | 13.5 µM | 28.7 µM | 15.6 µM | 34.4 µM | 14 µM | 27.5 µM | 14.5 µM | 29.3 µM | 10.4 µM | 22.1 µM | 13.7 µM | 28.1 µM | 13.1 µM | 27.9 µM | 15.9 µM | 31.1 µM
O=C1/C=C/[C@@H](O)[C@@H]2C[C@@H](O)C[C@H]2/C=C/CCC[C@H](CCO)O1 | 0.0272 µM | 0.117 µM | 0.239 µM | 0.804 µM | 0.324 µM | 3.43 µM | 0.396 µM | > 100 µM | 0.469 µM | > 100 µM | 0.29 µM | > 100 µM | 0.215 µM | 0.454 µM | 0.193 µM | 0.5 µM | 0.0584 µM | 0.268 µM | 0.287 µM | > 100 µM
Cc1[nH]nc(C(F)(F)F)c1Cc1sc2c(c1C(=O)N1C[C@](C)(O)CO1)c(=O)n(C)c(=O)n2C(C)C | > 100 µM | > 100 µM | > 100 µM | > 100 µM | > 100 µM | > 100 µM | > 100 µM | > 100 µM | > 100 µM | > 100 µM | > 100 µM | > 100 µM | > 100 µM | > 100 µM | > 100 µM | > 100 µM | > 100 µM | > 100 µM | > 100 µM | > 100 µM
O=C1OC(OC/C(Br)=C(\Br)COC2OC(=O)C(Cl)=C2Cl)C(Cl)=C1Cl (stereo not drawn) | – | 6.1 µM | – | 34.6 µM | – | 5.54 µM | – | 30 µM | – | 21.9 µM | – | 34.7 µM | – | 4.56 µM | – | 14.5 µM | – | 55.7 µM | – | 43 µM
COc1ccc(C(=O)/C=C/c2ccc(OCc3cccc(C(F)(F)F)c3)c(OC)c2)cc1OC | 68.3 µM | 562 µM | 32.1 µM | > 1000 µM | – | – | 292 µM | > 1000 µM | 65.3 µM | > 1000 µM | 70.3 µM | > 1000 µM | 34.9 µM | > 1000 µM | 48.4 µM | > 1000 µM | 55.3 µM | > 1000 µM | 221 µM | > 1000 µM
COc1c(C(N)=O)cc(-c2ccc(Cl)cc2)cc1-c1ccc(S(N)(=O)=O)cc1 | 7.88 µM | > 25 µM | 9.71 µM | > 25 µM | 10.9 µM | > 25 µM | 15 µM | > 25 µM | 14.2 µM | > 25 µM | 11.2 µM | > 25 µM | 12.4 µM | > 25 µM | 9.79 µM | > 25 µM | 11 µM | > 25 µM | > 22 µM | > 25 µM
